Data as given in patent US20220151993A1, “TREATMENT OF ANXIETY AND DEPRESSION” (NEW YORK UNIVERSITY, priority 2020, published 2022).

Key:
[1] = tested on: patients with cancer-related psychiatric and existential distress; test: Death Anxiety Scale (DAS), long-term follow-up; format: in vivo, human; details: single 0.3 mg/kg dose with psychotherapy, baseline 8.06
Experimental: (§1) The present example assesses the long-term effects of a single dose of psilocybin (0.3 mg/kg) in conjunction with psychotherapy in patients with cancer-related psychiatric and existential distress.
(§2) 29 participants were randomly assigned to one of two groups: psilocybin (0.3 mg/kg) on the first medication session followed by niacin (250 mg) on the second session (i.e. psilocybin-first group), or niacin (250 mg) on the first medication session followed by psilocybin (0.3 mg/kg) on the second session (i.e. niacin-first group). Psilocybin and niacin were administered in identically appearing gelatin capsules.
Participants received three 2-hour preparatory psychotherapy sessions in order to review the purpose and intention of participation in the study, treatment goals, and structure of the treatment sessions. Medications were administered in 8-hour treatment sessions which included a discussion of the participant's subjective experience with the treatment team to consolidate the memory of the experience and to begin the process of post-integrative psychotherapy. Participants also received three 2-hour post-medication integration sessions (repeated after the second dosing session) to further consolidate the memory of the experience and to continue the process of psychological integration. All psychotherapy treatment sessions were delivered by a dyadic therapy team trained in a blend of psychotherapies with an evidence base to support their use in cancer patients (drawing upon principles of palliative care therapy, existential psychotherapy, cognitive-behavioural therapy, psychoanalysis therapy, and transpersonal psychology) and were taught about the safety and clinical pharmacology of psilocybin. […]
Cancer-related existential distress (demoralization, hopelessness, attitudes and effects associated with disease progression and death) was assessed using the following methods: • The Death Anxiety Scale (DAS) (Templer, 1970)—a 15-item measure that has been used most frequently to assess death anxiety. Items are scored “true” and “false” and then scored as one and zero, respectively. […]

[2] = tested on: patients with cancer-related psychiatric and existential distress; test: Secondary questionnaire domains (social relationships, environmental, physical, psychological health), long-term follow-up; format: in vivo, human; details: single 0.3 mg/kg dose with psychotherapy; for Psychological health: baseline 13.58; for Social relationships: baseline 13.91; for Physical health: baseline 15.00; for Environmental health: baseline 15.50
Experimental: as §1, §2
(§3) Participants received three 2-hour preparatory psychotherapy sessions in order to review the purpose and intention of participation in the study, treatment goals, and structure of the treatment sessions. Medications were administered in 8-hour treatment sessions which included a discussion of the participant's subjective experience with the treatment team to consolidate the memory of the experience and to begin the process of post-integrative psychotherapy. Participants also received three 2-hour post-medication integration sessions (repeated after the second dosing session) to further consolidate the memory of the experience and to continue the process of psychological integration. All psychotherapy treatment sessions were delivered by a dyadic therapy team trained in a blend of psychotherapies with an evidence base to support their use in cancer patients (drawing upon principles of palliative care therapy, existential psychotherapy, cognitive-behavioural therapy, psychoanalysis therapy, and transpersonal psychology) and were taught about the safety and clinical pharmacology of psilocybin. Each therapy dyad underwent six confidential one-to-one sessions to build their alliance and exchange ideas about psychedelic therapy. The trial employed a crossover design at seven weeks following the first drug administration, with an outcome assessment at 6.5 months (26 weeks) following the second drug administration (i.e. after the crossover).
(§4) Two long-term follow ups (LTFUs) were carried out to assess the continued effect of psilocybin. Of the original 29 participants, all 16 participants who were not deceased at the time of LTFU were contacted (the remaining 13 participants were deceased). Of the 16 participants who were contacted, 15 agreed to participate in the LTFU and completed measures through a secure online portal. One participant died (from cancer-related complications) after completing the first LTFU and prior to the second LTFU, leaving us with 14 participants at the second LTFU. The first and second LTFUs occurred on average 3.2 years (range 2.3-4.5 years) and 4.5 years (range 3.5-5.5 years) following the participants' psilocybin dosing date, respectively.
Regarding all analyses for both the primary and secondary outcome assessments, both the psilocybin-first and niacin-first dose sequence groups were collapsed and combined into one group. Reasons for this decision included the crossover design, which prevented valid between-group comparisons subsequent to the crossover, and a need to increase power given the modest sample size.
The long-terms effects of psilocybin on variables of interest were evaluated using four repeated measures regressions, estimated within the mixed effect repeated measurement (MMRM) model. Planned within-subject t-tests (Tukey's post-hoc) were conducted comparing scores at baseline to the following time points for primary and secondary outcomes: 6.5 months after the second medication session, and the first and second LTFU points. Planned within subject t-tests were also conducted comparing scores at parent study endpoint (6.5 months) to the two LTFU points.

[3] = tested on: patients with cancer-related psychiatric and existential distress; test: Primary outcome measures (anxiety and depression) combined: effect sizes, clinical response and remission rates; format: in vivo, human
Experimental: as §1, §2, §3, §4
Primary outcomes (anxiety and depression) were measured according to the following methods: • Hospital Anxiety and Depression Scale (HADS) (Zigmond and Snaith, 1983)—this is widely used in hospital settings to screen for the severity of anxiety and depression. It contains 14 questions rated on a four-point scale (total score (HAD-T) ranges from […]). Subscale scores can be calculated for depression (HADS-D) and anxiety (HADS-A). […] The HADS has shown good reliability (Cronbach's a ranging from 0.80-0.93) and has been well validated (Herrmann, 1997). • Beck Depression Inventory-II (BDI-II) (Beck et al., 1988)—a widely used self-report screening measure for depression. The BDI-II consists of 21 questions about depressive symptoms experienced over the past two weeks rated on a […] scale (total score ranges from 0-63). Scores above 12 indicate possible clinical depression. This measure has shown good reliability (internal consistency of 0.90) and factorial validity (Storch et al. 2004). • Spielberger State-Trait Anxiety Inventory (STAI) (Spielberger, 1983)—a well-known measure of anxiety consisting of scales for state (STAI-S) and trait-level anxiety (STAI-T). […]

[4] = tested on: patients with life-threatening cancer; details: 6-month follow up; cited from earlier work
[5] = tested on: patients with advanced-stage cancer; details: single moderate dose 0.2 mg/kg; cited from earlier work
[6] = mean score at 3.2 years, p < 0.01 vs baseline
[7] = mean score at 4.5 years, p < 0.05 vs baseline
[8] = mean score at 6.5-8 months, p < 0.05 vs baseline
[9] = second LTFU point (mean 4.5 years)

CN(C)CCc1c[nH]c2cccc(OP(=O)(O)O)c12 [psilocybin, [3-(2-dimethylaminoethyl)-1H-indol-4-yl] dihydrogen phosphate]
Death anxiety [1, 6]: 5.68
Death anxiety [1, 7]: 5.75
Death anxiety ([1]; mean score at 6.5-8 months, p < 0.01 vs baseline): 6.09
Psychological health [2, 6]: 15.48
Social relationships ([2]; mean score at 3.2 years): 15.54
Physical health ([2]; mean score at 3.2 years): 16.33
Environmental health ([2]; mean score at 3.2 years, p < 0.05 vs baseline): 16.72
Psychological health ([2]; mean score at 4.5 years): 14.80
Social relationships ([2]; mean score at 4.5 years): 14.67
Physical health ([2]; mean score at 4.5 years): 13.89
Environmental health [2, 7]: 17.00
Psychological health ([2]; mean score at 6.5-8 months, p < 0.001 vs baseline): 15.70
Social relationships ([2]; mean score at 6.5-8 months): 15.27
Physical health [2, 8]: 16.35
Environmental health [2, 8]: 16.54
participants meeting criteria for clinical antidepressant or anxiolytic response and remission ([3]; 4.5 year time point): 60-80%
mean Cohen's d, reductions in symptoms since baseline on primary measures (anxiety and depression) ([3]; 6.5-month point): 1.90
range of Cohen's d, primary measures (anxiety and depression) ([3]; 6.5-month point): 1.27-2.67
participants meeting criteria for clinical antidepressant or anxiolytic response and remission ([3]; 6.5 months after psilocybin administration): 60-80%
mean Cohen's d, reductions in symptoms since baseline on primary measures (anxiety and depression) ([3]; first LTFU (mean 3.2 years)): 1.30
range of Cohen's d, primary measures (anxiety and depression) ([3]; first LTFU (mean 3.2 years)): 0.93-1.97
depression symptom remission rates ([3]; second LTFU (4.5 years, n=14), 50% or greater reduction plus HADS-D≤7 or BDI≤12): 50-79%
percentages of clinical responses for depression on the HADS-D and BDI ([3]; second LTFU (4.5 years, n=14), 50% or greater reduction relative to baseline): 57-79%
mean Cohen's d, reductions in symptoms since baseline on primary measures (anxiety and depression) [3, 9]: 1.41
range of Cohen's d, primary measures (anxiety and depression) [3, 9]: 0.86-1.89
participants continuing to show decreases in depressed mood and anxiety [4]: about 80%
adverse events [5]: no clinically significant adverse events
time after treatment up to which levels of anxiety were reduced [5]: up to 3 months
time after treatment up to which levels of depression were reduced [5]: up to 6 months
